# Assay results reported in ChEMBL document CHEMBL1137188, “Substituted 6-phenyl-pyridin-2-ylamines: selective and potent inhibitors of neuronal nitric oxide synthase” (Bioorg Med Chem Lett, 2004).
# Legend:
# Nitric oxide synthase 1 = Nitric oxide synthase 1 (Homo sapiens, UniProt P29475); experiment: Inhibitory activity against neuronal nitric oxide synthase in human
# Nitric oxide synthase 3 = molecular target: T1, Nitric oxide synthase 3 (Homo sapiens, UniProt P29474); experiment: Inhibitory activity against endothelial nitric oxide synthase in human
# T1 sequence (P29474 whole entry): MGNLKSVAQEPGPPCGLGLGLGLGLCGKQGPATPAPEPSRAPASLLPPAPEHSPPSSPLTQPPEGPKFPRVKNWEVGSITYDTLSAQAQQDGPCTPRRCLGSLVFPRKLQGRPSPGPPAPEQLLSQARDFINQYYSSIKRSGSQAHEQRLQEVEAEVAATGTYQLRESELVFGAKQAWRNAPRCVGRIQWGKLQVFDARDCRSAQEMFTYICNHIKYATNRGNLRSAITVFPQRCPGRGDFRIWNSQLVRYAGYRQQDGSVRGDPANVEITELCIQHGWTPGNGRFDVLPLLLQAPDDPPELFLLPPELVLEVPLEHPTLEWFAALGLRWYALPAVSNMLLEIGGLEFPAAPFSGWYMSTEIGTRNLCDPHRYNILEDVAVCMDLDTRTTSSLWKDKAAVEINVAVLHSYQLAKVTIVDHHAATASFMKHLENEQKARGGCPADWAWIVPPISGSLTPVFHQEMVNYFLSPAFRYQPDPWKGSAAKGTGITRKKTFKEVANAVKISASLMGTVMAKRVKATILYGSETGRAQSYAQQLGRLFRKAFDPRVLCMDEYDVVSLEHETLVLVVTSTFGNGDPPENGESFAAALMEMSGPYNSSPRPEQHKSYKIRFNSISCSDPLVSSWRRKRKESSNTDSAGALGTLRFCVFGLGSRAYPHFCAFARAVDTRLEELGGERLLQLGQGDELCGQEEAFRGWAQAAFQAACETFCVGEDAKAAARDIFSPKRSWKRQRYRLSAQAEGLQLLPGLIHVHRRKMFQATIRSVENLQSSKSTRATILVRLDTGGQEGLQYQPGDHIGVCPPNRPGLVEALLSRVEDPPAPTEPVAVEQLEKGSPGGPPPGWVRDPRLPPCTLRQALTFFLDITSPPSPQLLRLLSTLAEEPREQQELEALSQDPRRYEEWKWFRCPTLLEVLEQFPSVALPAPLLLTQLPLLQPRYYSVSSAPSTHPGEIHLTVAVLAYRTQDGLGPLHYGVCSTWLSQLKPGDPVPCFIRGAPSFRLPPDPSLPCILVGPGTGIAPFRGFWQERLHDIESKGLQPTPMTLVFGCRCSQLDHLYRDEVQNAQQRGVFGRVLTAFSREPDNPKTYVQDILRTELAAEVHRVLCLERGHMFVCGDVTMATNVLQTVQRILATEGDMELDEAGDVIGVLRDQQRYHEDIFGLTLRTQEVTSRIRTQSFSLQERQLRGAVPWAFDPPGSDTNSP
# Chain of Nitric oxide synthase 1 (P29475 whole entry): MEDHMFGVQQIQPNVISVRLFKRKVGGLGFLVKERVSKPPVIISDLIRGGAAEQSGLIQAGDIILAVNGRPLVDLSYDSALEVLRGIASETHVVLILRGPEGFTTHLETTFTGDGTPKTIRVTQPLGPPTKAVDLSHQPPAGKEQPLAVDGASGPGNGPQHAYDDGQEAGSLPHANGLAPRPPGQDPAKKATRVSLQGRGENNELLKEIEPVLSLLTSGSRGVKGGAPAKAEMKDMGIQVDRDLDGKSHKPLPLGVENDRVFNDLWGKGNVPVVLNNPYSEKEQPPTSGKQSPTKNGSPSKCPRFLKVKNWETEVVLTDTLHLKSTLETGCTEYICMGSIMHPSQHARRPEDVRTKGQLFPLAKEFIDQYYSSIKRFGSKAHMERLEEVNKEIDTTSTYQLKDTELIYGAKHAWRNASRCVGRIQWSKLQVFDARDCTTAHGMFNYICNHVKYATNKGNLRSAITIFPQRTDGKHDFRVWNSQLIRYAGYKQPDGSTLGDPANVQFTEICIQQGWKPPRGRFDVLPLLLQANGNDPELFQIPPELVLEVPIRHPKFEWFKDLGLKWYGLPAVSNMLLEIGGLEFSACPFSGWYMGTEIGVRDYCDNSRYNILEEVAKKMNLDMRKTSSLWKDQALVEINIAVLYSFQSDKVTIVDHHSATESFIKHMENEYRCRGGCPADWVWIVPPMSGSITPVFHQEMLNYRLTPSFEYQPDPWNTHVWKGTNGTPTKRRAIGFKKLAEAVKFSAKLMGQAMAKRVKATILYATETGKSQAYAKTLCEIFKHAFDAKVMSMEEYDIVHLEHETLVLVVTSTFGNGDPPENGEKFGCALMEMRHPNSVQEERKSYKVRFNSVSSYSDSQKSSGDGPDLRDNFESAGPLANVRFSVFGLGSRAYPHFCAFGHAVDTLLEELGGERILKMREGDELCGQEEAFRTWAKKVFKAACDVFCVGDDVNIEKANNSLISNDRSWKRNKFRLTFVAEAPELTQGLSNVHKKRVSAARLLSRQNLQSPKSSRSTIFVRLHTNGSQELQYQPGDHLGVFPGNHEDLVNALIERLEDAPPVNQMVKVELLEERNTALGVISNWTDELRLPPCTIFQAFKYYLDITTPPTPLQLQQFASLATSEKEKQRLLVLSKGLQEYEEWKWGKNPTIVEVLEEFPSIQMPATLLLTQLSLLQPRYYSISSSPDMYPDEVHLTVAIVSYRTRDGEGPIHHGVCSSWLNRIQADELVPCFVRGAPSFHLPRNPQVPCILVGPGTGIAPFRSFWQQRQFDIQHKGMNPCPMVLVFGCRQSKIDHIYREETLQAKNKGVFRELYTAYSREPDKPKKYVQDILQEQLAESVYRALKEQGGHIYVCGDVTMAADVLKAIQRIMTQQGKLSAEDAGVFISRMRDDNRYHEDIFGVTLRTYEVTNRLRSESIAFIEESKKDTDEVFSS
Compound,IC50 (Nitric oxide synthase 1) [nM],IC50 (Nitric oxide synthase 3) [nM]
CCc1cc(-c2cccc(N)n2)c(OC)cc1OCCN(C)C,58,3710
COc1cc(-c2cccc(N)n2)c(OC)cc1CCN(C)C,235,> 32000
COc1cc(-c2cccc(N)n2)c(OC)cc1CCCN(C)C,200,> 32000
COc1cc(-c2cccc(N)n2)c(OC)cc1OCCN(C)C,112,21900
CCc1cc(-c2cccc(N)n2)c(OC)cc1CCCN(C)C,75,> 7700
COc1cc(-c2cccc(N)n2)c(OC)cc1CN(C)C,810,> 32000
CCc1cc(-c2cccc(N)n2)c(OC)cc1CCN(C)C,75,16500
CCc1cc(-c2cccc(N)n2)c(OC)cc1CN(C)C,–,8830
